Measurements as given in patent US8569295B2, “Bicyclic urea compounds” (Merck Patent GmbH, priority 2009, dated 2013).
pIC50: −log10 of the molar value.

Target: T1, GST-Aurora A (Homo sapiens, UniProt O14965)
T1 construct: N-terminal GST fusion with full length Aurora A (1-403 amino acids); purchased Carna Biosciences 05-101
T1 sequence (O14965 1-403): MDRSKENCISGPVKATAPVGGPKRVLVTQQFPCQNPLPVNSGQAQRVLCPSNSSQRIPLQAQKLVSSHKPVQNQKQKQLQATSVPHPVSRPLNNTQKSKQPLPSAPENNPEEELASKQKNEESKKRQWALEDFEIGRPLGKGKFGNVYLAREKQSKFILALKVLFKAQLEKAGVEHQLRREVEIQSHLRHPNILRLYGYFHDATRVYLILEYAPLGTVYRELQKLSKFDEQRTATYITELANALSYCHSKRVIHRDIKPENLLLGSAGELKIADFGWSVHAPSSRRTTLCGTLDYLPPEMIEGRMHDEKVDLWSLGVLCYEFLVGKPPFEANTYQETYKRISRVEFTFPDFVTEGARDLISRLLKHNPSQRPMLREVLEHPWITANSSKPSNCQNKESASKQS
Experiment: Aurora A kinase biochemical mobility shift assay (Caliper LC3000 / Desktop Profiler)
Conditions: AK A (Aurora kinase A) inhibition
Description: The Aurora assays described here are performed on two Caliper Life Sciences systems: the LC3000 and the Desktop Profiler. The RON kinase assays are performed on the Desktop Profiler only. These provide data on enzyme activity via measurement of the relative amounts of phosphorylated or unphosphorylated fluorescently labelled substrate peptide at the end of an enzymatic reaction. These different states of peptide are resolved by applying a potential difference across the sample. The presence of the charged phosphate group on the product (as opposed to the substrate) causes a different peptide mobility between the two peptides. This is visualized by excitation of the fluorescent label on the substrate and product peptides and represented as peaks within the analysis software.
In order to measure inhibitor activity of Aurora A inhibitors in the Caliper Life Sciences LC3000, a TTP Mosquito liquid handling instrument is used to place 0.25 ul of the appropriate concentration of inhibitor in 100% DMSO (for a dose response curve calculation) into each well of a 384-well plate. To this reaction components are added to a final volume of 25 ul: • 0.067 ng/ul GST-Aurora A (Carna Biosciences 05-101. N-terminal GST fusion with full length Aurora A (1-403 amino acids), accession number NP_940835.1). • 15 uM ATP (Fluka, 02055) • 1 mM DTT (Sigma, D0632) • 1 mM MgCl2 (Sigma, M1028) • 1 uM substrate peptide (sequence FITC-LRRASLG-(CONH2), synthesized by Tufts Peptide Synthesis service. • 100 mM HEPES pH 7.5 (Calbiochem, 391338) • 0.015% Brij-35 (Sigma, B4184)
The reaction is incubated for 90 min at 25 C, and then stopped by the addition of 70 ul of Stop buffer (100 mM HEPES pH 7.5, 0.015% Brij-35, 10 mM EDTA (Sigma, E7889)).
The plate is read on a Caliper LC3000 in an Off-Chip mobility shift assay format, using the following parameters for a 12-sipper chip: screening pressure −1.8 psi, upstream voltage −2700, downstream voltage −1000. These conditions cause unphosphorylated substrate and phosphorylated product peptide to resolve as separate peaks allowing direct measurement of percentage of conversion of substrate to product. The percent conversion can be plotted against concentration of inhibitor to produce a sigmoidal dose response curve, from which an IC50 can be calculated using XLFit for Microsoft Excel.
The Desktop Profiler utilizes the same priniciple as the LC3000 for calculating percentage conversion of a substrate to product. Caliper Life Sciences provides proprietary flash frozen pre-made 384 well plates containing selected kinases. Each column in the 384 well plate contains a particular selected kinase. A second plate, the ‘substrate plate’ contains a mix of fluorescently labeled peptide substrate and ATP. These are arranged in columns so that transfer for substrate plate to enzyme plate provides the correct enzyme with the correct substrate/ATP concentration. Compounds are added to a thawed enzyme plate in the desired format, in single concentrations. Reactions are initiated by transfer of the substrate/ATP mix from the substrate plate. The enzyme plate is incubated for 90 minutes at 25 C. The reaction is stopped by addition of 70 ul of Stop Buffer (100 mM HEPES pH 7.5, 0.015% Brij-35, 10 mM EDTA (Sigma, E7889)).
Reading of the plate in the Profiler is identical to the LC3000, and the ratio between substrate and product peaks provides the activity of the enzyme in that well. This is best represented by a plate heat map which colors each well by percent inhibition as compared to positive and negative controls (no inhibitors and no ATP respectively).

Row | SMILES | pIC50
1 | COc1ccc(CN2Cc3c(Nc4ccc(NC(=O)c5ccccc5)cc4)ccnc3NC2=O)cc1 [Example 2] | 6.00 to 7.00
2 | O=C1NCc2c(Nc3ccc(NC(=O)c4ccccc4)cc3)ccnc2N1 [Example 4, N-(4-(2-oxo-1,2,3,4-tetrahydropyrido [2,3-d]pyrimidin-5-ylamino)phenyl)benzamide] | 7.00 to 8.00
3 | COc1ccc(CN2Cc3c(Nc4ccc(NC(=O)c5ccc(F)cc5C(F)(F)F)cc4)ccnc3NC2=O)cc1 [Example 5, 4-fluoro-N-(4-(3-(4-methoxybenzyl)-2-oxo-1,2,3,4-tetrahydropyrido [2,3-d]pyrimidin-5-ylamino)phenyl)-2-(trifluoromethyl) benzamide] | 6.00 to 7.00
4 | O=C1NCc2c(Nc3ccc(NC(=O)c4ccc(F)cc4C(F)(F)F)cc3)ccnc2N1 [Example 6, 4-fluoro-N-(4-(2-oxo-1,2,3,4-tetrahydropyrido[2,3-d]pyrimidin-5-ylamino)phenyl)-2-(trifluoromethyl) benzamide] | > 8.00
5 | O=C(Nc1ccc(Nc2ccnc3c2CN(c2ccc(CN4CCCC4)cc2)C(=O)N3)cc1)c1ccc(F)cc1C(F)(F)F [Example 8, 4-fluoro-N-(4-(2-oxo-3-(4-(pyrrolidin-1-ylmethyl)phenyI)-1,2,3,4-tetrahydropyrido[2,3-d]pyrimidin-5-ylamino)phenyl)-2-(trifluoromethyl)benzamide] | 6.00 to 7.00
6 | O=C(Nc1ccc(Nc2ccnc3c2CN(c2ccc(CN4CCCC4)cc2)C(=O)N3)cc1)c1ccccc1 [Example 9, N-(4-(2-oxo-3-(4-(pyrrolidin-1-ylmethyl)phenyl)-1,2,3,4-tetrahydropyrido[2,3-d]pyrimidin-5-ylamino)phenyl)benzamide] | 6.00 to 7.00
7 | CN(C)CCN1Cc2c(Nc3ccc(NC(=O)c4ccc(F)cc4C(F)(F)F)cc3)ccnc2NC1=O [Example 11, N-(4-(3-(2-(dimethylamino)ethyl)-2-oxo-1,2,3,4-tetrahydropyrido [2,3-d]pyrimidin-5-ylamino)phenyl)-4-fluoro-2-(trifluoromethyl) benzamide] | 6.00 to 7.00
8 | O=C(Nc1ccc(Nc2ccnc3c2CN(C2CC2)C(=O)N3)cc1)c1ccccc1 [Example 14, N-(4-(3-cyclopropyl-2-oxo-1,2,3,4-tetrahydropyrido[2,3-d]pyrimidin-5-ylamino)phenyl) benzamide] | 6.00 to 7.00
9 | CN1Cc2c(Nc3ccc(NC(=O)CC(F)(F)F)cc3)ccnc2NC1=O [Example 24, 3,3,3-trifluoro-N-(4-(3-methyl-2-oxo-1,2,3,4-tetrahydropyrido [2,3-d]pyrimidin-5-ylamino)phenyl) propanamide] | 6.00 to 7.00
10 | O=C(Nc1ccc(Nc2ccnc3c2CN(c2ccccc2)C(=O)N3)c(F)c1)c1cccc(F)c1 [Example 26, 3-fluoro-N-(3-fluoro-4-(2-oxo-3-phenyl-1,2,3,4-tetrahydropyrido [2,3-d]pyrimidin-5-ylamino)phenyl) benzamide] | 7.00 to 8.00
11 | O=C(Nc1ccc(Nc2ccnc3c2CN(c2ccccc2)C(=O)N3)cc1)c1ccc(F)cc1C(F)(F)F [Example 27, 4-fluoro-N-(4-(2-oxo-3-phenyl-1,2,3,4-tetrahydropyrido [2,3-d]pyrimidin-5-ylamino)phenyl)-2-(trifluoromethyl) benzamide] | 7.00 to 8.00
12 | CN1Cc2c(Nc3ccc(NC(=O)c4ccc(F)cc4C(F)(F)F)cc3F)ccnc2NC1=O [Example 28, 4-fluoro-N-(3-fluoro-4-(3-methyl-2-oxo-1,2,3,4-tetrahydropyrido [2,3-d]pyrimidin-5-ylamino)phenyl)-2-(trifluoromethyl) benzamide] | > 8.00
13 | O=C(Nc1ccc(Nc2ccnc3c2CN(CCCO)C(=O)N3)cc1)c1ccc(F)cc1C(F)(F)F [Example 32, 4-fluoro-N-(4-(3-(3-hydroxypropyl)-2-oxo-1,2,3,4-tetrahydropyrido [2,3-d]pyrimidin-5-ylamino)phenyl)-2-(trifluoromethyl) benzamide] | > 8.00
14 | CCN1Cc2c(Nc3ccc(NC(=O)c4ccccc4)cc3)ccnc2NC1=O [Example 35, N-(4-(3-ethyl-2-oxo-1,2,3,4-tetrahydropyrido [2,3-d]pyrimidin-5-ylamino)phenyl) benzamide] | 7.00 to 8.00

The remaining lines, values ahead:

Row | pIC50 | SMILES
15 | 7.00 to 8.00 | O=C(Nc1ccc(Nc2ccnc3c2CN(C2CC2)C(=O)N3)cc1)c1ccc(F)cc1C(F)(F)F [Example 15, N-(4-(3-cyclopropyl-2-oxo-1,2,3,4-tetrahydropyrido [2,3-d]pyrimidin-5-ylamino)phenyl)-4-fluoro-2-(trifluoromethyl) benzamide]
16 | > 8.00 | CN1Cc2c(Nc3ccc(NC(=O)c4cccc(F)c4)cc3F)ccnc2NC1=O [Example 20, 3-fluoro-N-(3-fluoro-4-(3-methyl-2-oxo-1,2,3,4-tetrahydropyrido [2,3-d]pyrimidin-5-ylamino)phenyl) benzamide]
17 | > 8.00 | CN1Cc2c(Nc3ccc(NC(=O)c4ccc(F)cc4C(F)(F)F)cc3)ccnc2NC1=O [Example 21, 4-fluoro-N-(4-(3-methyl-2-oxo-1,2,3,4-tetrahydropyrido [2,3-d]pyrimidin-5-ylamino)phenyl)-2-(trifluoromethyl) benzamide]
18 | 7.00 to 8.00 | CN1Cc2c(Nc3ccc(NC(=O)c4ccccc4)cc3)ccnc2NC1=O [Example 22, N-(4-(3-methyl-2-oxo-1,2,3,4-tetrahydropyrido [2,3-d]pyrimidin-5-ylamino)phenyl) benzamide]
19 | 6.00 to 7.00 | CN1Cc2c(Nc3ccc(NC(=O)CC4CC4)cc3)ccnc2NC1=O [Example 23, 2-cyclopropyl-N-(4-(3-methyl-2-oxo-1,2,3,4-tetrahydropyrido [2,3-d]pyrimidin-5-ylamino)phenyl) acetamide]
20 | 7.00 to 8.00 | O=C(Nc1ccc(Nc2ccnc3c2CN(CCO)C(=O)N3)cc1)c1ccc(F)cc1C(F)(F)F [Example 30, 4-fluoro-N-(4-(3-(2-hydroxyethyl)-2-oxo-1,2,3,4-tetrahydropyrido [2,3-d]pyrimidin-5-ylamino)phenyl)-2-(trifluoromethyl) benzamide]
21 | 7.00 to 8.00 | O=C(Nc1ccc(Nc2ccnc3c2CN(CCCN2CCCC2=O)C(=O)N3)cc1)c1ccc(F)cc1C(F)(F)F [Example 31, 4-fluoro-N-(4-(2-oxo-3-(3-(2-oxopyrrolidin-1-yl)propyl)-1,2,3,4-tetrahydropyrido [2,3-d]pyrimidin-5-ylamino)phenyl)-2-(trifluoromethyl) benzamide]
22 | > 8.00 | CCN1Cc2c(Nc3ccc(NC(=O)c4ccc(F)cc4C(F)(F)F)cc3)ccnc2NC1=O [Example 34, N-(4-(3-ethyl-2-oxo-1,2,3,4-tetrahydropyrido [2,3-d]pyrimidin-5-ylamino)phenyl)-4-fluoro-2-(trifluoromethyl) benzamide]
23 | > 8.00 | CCN1Cc2c(Nc3ccc(NC(=O)c4ccc(F)cc4C(F)(F)F)cc3F)ccnc2NC1=O [Example 36, N-(4-(3-ethyl-2-oxo-1,2,3,4-tetrahydropyrido [2,3-d]pyrimidin-5-ylamino)-3-fluorophenyl)-4-fluoro-2-(trifluoromethyl) benzamide]
24 | 7.00 to 8.00 | O=C(Nc1ccc(Nc2ccnc3c2CN(CC(F)(F)F)C(=O)N3)cc1)c1ccccc1 [Example 37, N-(4-(2-oxo-3-(2,2,2-trifluoroethyl)-1,2,3,4-tetrahydropyrido[2,3-d]pyrimidin-5-ylmino)phenyl)benzamide]
